#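 Grown in 96-well plates, cells were treated for 48 hours with each compound at five concentrations. Insufficient inhibition: endpoint recorded as highest concentration tested. The concentration for 50% growth inhibition is given as GI50. The concentration for full growth arrest is given as TGI.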
# Experiments:
# Assay in all cases: NCI tumour cell line growth inhibition, 48 h
# UO-31 renal = tested on: UO-31 renal
# SK-OV-3 ovarian = tested on: SK-OV-3 ovarian
# COLO 205 colon = tested on: COLO 205 colon
# BT-549 breast = tested on: BT-549 breast
# HL-60(TB) leukemia = tested on: HL-60(TB) leukemia
# PC-3 prostate = tested on: PC-3 prostate
# SK-MEL-5 melanoma = tested on: SK-MEL-5 melanoma
# SNB-19 CNS = tested on: SNB-19 CNS
# DU-145 prostate = tested on: DU-145 prostate
# TK-10 renal = tested on: TK-10 renal
# SW-620 colon = tested on: SW-620 colon
# SF-295 CNS = tested on: SF-295 CNS
# CAKI-1 renal = tested on: CAKI-1 renal
# ACHN renal = tested on: ACHN renal
# RXF 393 renal = tested on: RXF 393 renal
# NCI-H226 lung = tested on: NCI-H226 lung
# SF-268 CNS = tested on: SF-268 CNS
# RPMI-8226 leukemia = tested on: RPMI-8226 leukemia
# SNB-75 CNS = tested on: SNB-75 CNS
# OVCAR-3 ovarian = tested on: OVCAR-3 ovarian
# LOX IMVI melanoma = tested on: LOX IMVI melanoma
# K-562 leukemia = tested on: K-562 leukemia
# EKVX NSCLC = tested on: EKVX NSCLC
# KM12 colon = tested on: KM12 colon
# HT29 colon = tested on: HT29 colon
# NCI/ADR-RES ovarian = tested on: NCI/ADR-RES ovarian
# UACC-62 melanoma = tested on: UACC-62 melanoma
# T-47D breast = tested on: T-47D breast
# MOLT-4 leukemia = tested on: MOLT-4 leukemia
# MDA-MB-231 breast = tested on: MDA-MB-231 breast
# IGROV1 ovarian = tested on: IGROV1 ovarian
# UACC-257 melanoma = tested on: UACC-257 melanoma
# CCRF-CEM leukemia = tested on: CCRF-CEM leukemia
# A549 NSCLC = tested on: A549 NSCLC
# OVCAR-5 ovarian = tested on: OVCAR-5 ovarian
# NCI-H522 lung = tested on: NCI-H522 lung
# HCT-15 colon = tested on: HCT-15 colon
# U251 CNS = tested on: U251 CNS
# HCT-116 colon = tested on: HCT-116 colon
# OVCAR-8 ovarian = tested on: OVCAR-8 ovarian
# SN12C renal = tested on: SN12C renal
# NCI-H460 lung = tested on: NCI-H460 lung
# A498 renal = tested on: A498 renal
# SR leukemia = tested on: SR leukemia
# SK-MEL-28 melanoma = tested on: SK-MEL-28 melanoma
# HCC-2998 colon = tested on: HCC-2998 colon
# HOP-62 NSCLC = tested on: HOP-62 NSCLC
# 786-0 renal = tested on: 786-0 renal
# OVCAR-4 ovarian = tested on: OVCAR-4 ovarian
# MDA-MB-435 = tested on: MDA-MB-435
# NCI-H23 lung = tested on: NCI-H23 lung
# HOP-92 NSCLC = tested on: HOP-92 NSCLC
# SF-539 CNS = tested on: SF-539 CNS
# M14 melanoma = tested on: M14 melanoma
# MCF7 breast = tested on: MCF7 breast
# SK-MEL-2 melanoma = tested on: SK-MEL-2 melanoma
# HS 578T breast = tested on: HS 578T breast
compound,measurement,setting,value
C=C1C(=O)OC2C1C(=O)C/C(C)=C/CCC1(C)OC21 (stereo not drawn),TGI,UO-31 renal,28400 nM
same,TGI,SK-OV-3 ovarian,> 100000 nM
same,TGI,COLO 205 colon,18000 nM
same,TGI,BT-549 breast,54600 nM
same,TGI,HL-60(TB) leukemia,7230 nM
same,TGI,PC-3 prostate,33300 nM
same,TGI,SK-MEL-5 melanoma,34500 nM
same,TGI,SNB-19 CNS,> 100000 nM
same,TGI,DU-145 prostate,32100 nM
same,TGI,TK-10 renal,30800 nM
same,TGI,SW-620 colon,40800 nM
same,TGI,SF-295 CNS,> 100000 nM
same,TGI,CAKI-1 renal,28600 nM
same,TGI,ACHN renal,22200 nM
same,TGI,RXF 393 renal,31900 nM
same,TGI,NCI-H226 lung,39200 nM
same,TGI,SF-268 CNS,50800 nM
same,TGI,RPMI-8226 leukemia,31700 nM
same,TGI,SNB-75 CNS,46700 nM
same,TGI,OVCAR-3 ovarian,31800 nM
same,TGI,LOX IMVI melanoma,36700 nM
same,TGI,K-562 leukemia,74000 nM
same,TGI,EKVX NSCLC,61200 nM
same,TGI,KM12 colon,53300 nM
same,TGI,HT29 colon,43200 nM
same,TGI,NCI/ADR-RES ovarian,99400 nM
same,TGI,UACC-62 melanoma,66800 nM
same,TGI,T-47D breast,32200 nM
same,TGI,MOLT-4 leukemia,47000 nM
same,TGI,MDA-MB-231 breast,38300 nM
same,TGI,IGROV1 ovarian,44900 nM
same,TGI,UACC-257 melanoma,41300 nM
same,TGI,CCRF-CEM leukemia,> 100000 nM
same,TGI,A549 NSCLC,37800 nM
same,TGI,OVCAR-5 ovarian,33000 nM
same,TGI,NCI-H522 lung,12000 nM
same,TGI,HCT-15 colon,28600 nM
same,TGI,U251 CNS,37700 nM
same,TGI,HCT-116 colon,33500 nM
same,TGI,OVCAR-8 ovarian,56200 nM
same,TGI,SN12C renal,42600 nM
same,TGI,NCI-H460 lung,39700 nM
same,TGI,A498 renal,49600 nM
same,TGI,SR leukemia,> 100000 nM
same,TGI,SK-MEL-28 melanoma,31600 nM
same,TGI,HCC-2998 colon,35300 nM
same,TGI,HOP-62 NSCLC,28000 nM
same,TGI,786-0 renal,31800 nM
same,TGI,OVCAR-4 ovarian,46000 nM
same,TGI,MDA-MB-435,31100 nM
same,TGI,NCI-H23 lung,38800 nM
same,TGI,HOP-92 NSCLC,41700 nM
same,TGI,SF-539 CNS,29300 nM
same,TGI,M14 melanoma,31700 nM
same,TGI,MCF7 breast,29200 nM
same,TGI,SK-MEL-2 melanoma,35800 nM
same,TGI,HS 578T breast,> 100000 nM
COC1C(O)CC(OC2CC(OC3CC(O[C@@H]4C(=O)c5c(cc6cc(OC7CC(OC8CC(O)C(O)C(C)O8)C(O)C(C)O7)c(C)c(O)c6c5O)CC4[C@H](OC)C(=O)C(C)=O)OC(C)C3O)OC(C)C2O)OC1C (stereo partly drawn),GI50,UO-31 renal,< 20 nM
same,GI50,COLO 205 colon,12.1 nM
same,TGI,COLO 205 colon,31.9 nM
same,GI50,BT-549 breast,10 nM
same,TGI,BT-549 breast,33.5 nM
same,GI50,HL-60(TB) leukemia,15.9 nM
same,TGI,HL-60(TB) leukemia,59.4 nM
same,GI50,PC-3 prostate,< 14.2 nM
same,TGI,PC-3 prostate,> 22600 nM
same,GI50,SNB-19 CNS,10.5 nM
same,TGI,SNB-19 CNS,> 33300 nM
same,GI50,DU-145 prostate,15.5 nM
same,TGI,DU-145 prostate,> 32200 nM
same,GI50,TK-10 renal,20.4 nM
same,TGI,TK-10 renal,75.8 nM
same,GI50,SW-620 colon,15.5 nM
same,TGI,SW-620 colon,> 33300 nM
same,GI50,SF-295 CNS,11 nM
same,GI50,CAKI-1 renal,41.5 nM
same,TGI,CAKI-1 renal,> 33300 nM
same,GI50,ACHN renal,52 nM
same,TGI,ACHN renal,> 33300 nM
same,GI50,RXF 393 renal,25.2 nM
same,TGI,RXF 393 renal,103 nM
same,GI50,NCI-H226 lung,13.2 nM
same,GI50,SF-268 CNS,13.7 nM
same,TGI,SF-268 CNS,138 nM
same,GI50,RPMI-8226 leukemia,10.6 nM
same,TGI,RPMI-8226 leukemia,206 nM
same,GI50,SNB-75 CNS,6.78 nM
same,TGI,SNB-75 CNS,20 nM
same,GI50,OVCAR-3 ovarian,13.1 nM
same,TGI,OVCAR-3 ovarian,67.3 nM
same,GI50,LOX IMVI melanoma,8.5 nM
same,TGI,LOX IMVI melanoma,22.9 nM
same,GI50,K-562 leukemia,15.8 nM
same,GI50,EKVX NSCLC,20.1 nM
same,TGI,EKVX NSCLC,> 33300 nM
same,GI50,KM12 colon,10.9 nM
same,TGI,KM12 colon,> 16000 nM
same,GI50,HT29 colon,12.2 nM
same,TGI,HT29 colon,53.5 nM
same,GI50,NCI/ADR-RES ovarian,433 nM
same,TGI,NCI/ADR-RES ovarian,> 33300 nM
same,GI50,UACC-62 melanoma,7.19 nM
same,TGI,UACC-62 melanoma,16.7 nM
same,GI50,T-47D breast,12 nM
same,TGI,T-47D breast,79.1 nM
same,GI50,MOLT-4 leukemia,12.3 nM
same,TGI,MOLT-4 leukemia,60.7 nM
same,GI50,MDA-MB-231 breast,49.5 nM
same,TGI,MDA-MB-231 breast,> 33300 nM
same,GI50,IGROV1 ovarian,15.9 nM
same,TGI,IGROV1 ovarian,> 33300 nM
same,GI50,UACC-257 melanoma,10.7 nM
same,TGI,UACC-257 melanoma,41.4 nM
same,GI50,CCRF-CEM leukemia,15.6 nM
same,TGI,CCRF-CEM leukemia,673 nM
same,GI50,A549 NSCLC,15.9 nM
same,TGI,A549 NSCLC,> 33300 nM
same,GI50,OVCAR-5 ovarian,23.4 nM
same,TGI,OVCAR-5 ovarian,> 33300 nM
same,GI50,NCI-H522 lung,8.77 nM
same,TGI,NCI-H522 lung,32.1 nM
same,GI50,HCT-15 colon,101 nM
same,TGI,HCT-15 colon,> 33300 nM
same,GI50,U251 CNS,< 10.6 nM
same,TGI,U251 CNS,> 33300 nM
same,GI50,HCT-116 colon,11.2 nM
same,TGI,HCT-116 colon,> 33300 nM
same,GI50,OVCAR-8 ovarian,13.2 nM
same,TGI,OVCAR-8 ovarian,> 33300 nM
same,GI50,SN12C renal,13.8 nM
same,TGI,SN12C renal,> 33300 nM
same,GI50,NCI-H460 lung,12 nM
same,TGI,NCI-H460 lung,> 33300 nM
same,GI50,A498 renal,23.3 nM
same,TGI,A498 renal,88.4 nM
same,GI50,SR leukemia,9.1 nM
same,TGI,SR leukemia,64.5 nM
same,GI50,SK-MEL-28 melanoma,10.6 nM
same,TGI,SK-MEL-28 melanoma,52.8 nM
same,GI50,HCC-2998 colon,10.6 nM
same,TGI,HCC-2998 colon,40.2 nM
same,GI50,HOP-62 NSCLC,8.95 nM
same,TGI,HOP-62 NSCLC,26.9 nM
same,GI50,786-0 renal,33.1 nM
same,TGI,786-0 renal,> 33300 nM
same,GI50,OVCAR-4 ovarian,24.5 nM
same,TGI,OVCAR-4 ovarian,10800 nM
same,GI50,MDA-MB-435,14.9 nM
same,TGI,MDA-MB-435,34.3 nM
same,GI50,NCI-H23 lung,12.5 nM
same,TGI,NCI-H23 lung,66.1 nM
same,GI50,HOP-92 NSCLC,10.8 nM
same,TGI,HOP-92 NSCLC,66.9 nM
same,GI50,SF-539 CNS,9.76 nM
same,TGI,SF-539 CNS,27.4 nM
same,GI50,M14 melanoma,8.43 nM
same,TGI,M14 melanoma,21.4 nM
same,GI50,MCF7 breast,10.8 nM
same,TGI,MCF7 breast,> 33300 nM
same,GI50,SK-MEL-2 melanoma,9.27 nM
same,TGI,SK-MEL-2 melanoma,27.5 nM
same,GI50,HS 578T breast,11.1 nM
same,TGI,HS 578T breast,> 11300 nM

# — PubChem BioAssay (NCI)
